Legend:
[1] = target: T1, HLA-A0201 (Homo sapiens, UniProt P04439, D140Y/D185E/D98H/E176V/E277Q/G131W/G231S/I119V/I121R/I166T/I218V/L300P/L318F/N151K/N90K/P208A/P217A/Q86G/Q94H/R138H/R169H/T345S); assay: T2 affinity verification of the polypeptides for HLA-A0201 by flow cytometry; type: binding; conditions: T2 affinity test
T1 construct: T2 cell expresses HLA-A0201; host or cells: T2 cells
Description: 2 duplicate wells per group were used. […] The cells were collected by centrifugation at 200 g for 5 minutes. After the collected cells were washed twice with PBS (Cat. No. 10010-031, GIBCO), the cells were directly incubated with anti-HLA-A 0201 FITC monoclonal antibody and incubated at 4 C for 30 minutes. The mean fluorescence intensity (MFI) was then detected and analyzed by flow cytometry (BD FACSJazz™) and its software, as shown in FIG. 1.
The fluorescence index (FI) is calculated using the following formula: FI=[Mean Fluorescence Intensity (MFI)sample−MFIbackground]/MFIbackground, wherein the MFIbackground represents the value without the polypeptide.

[2] = tested on: CD8+ T cells; assay: Cell expansion of CD8+ T cells stimulated by polypeptide-loaded DCs in vitro; type: cell-based, human; conditions: day 10 of co-culture of CD8+ T cells with polypeptide-loaded DCs; 2.5 × 10^6 cells before culture
Description: Dendritic cells (DCs) derived from monocytes were used as antigen presenting cells (APCs) to induce CTL responses against peptides presented on HLA. 2×10^8 peripheral blood mononuclear cells (PBMC) were isolated from 100 ml of peripheral blood of healthy volunteers with positive HLA-A0201 subtype using Ficoll lymphocyte separation solution (Cat. No. 17-1440-02, GE Healthcare). Mononuclear cells were obtained by adherent culture (3 hours), and CD8+ T cells in PBMC cells were screened with CD8 magnetic beads. GM-CSF (1000 U/ml) and IL-4 (1000 U/ml) were used to induce adherent monocytes into immature DCs, then IFN-γ (100 U/ml), LPS (10 ng/ml), and the polypeptides of the present invention as set forth in SEQ ID NOs: 2-5 were used to induce adherent cells into mature DC cells. The mature DC cells loaded with the polypeptides were irradiated (dose of 25 Gy) and co-cultured with CD8+ T cells of the volunteers (DC density was 5×10^5 cells/ml, CD8+ T cell density was 2×10^6 cells/ml, both of DCs and CD8+ T cells were mixed in equal volume and added to the well plate, i.e., co-cultured) with IL-21 added, then IL-2 and IL-7 were replenished after 3 days, and then IL-2 and IL-7 were replenished once on day 5 and 7, respectively. Co-cultured cells (co-cultured CD8+ T cells were activated to polypeptide-specific CD8+ T cells) were counted on day 10.

[3] = tested on: CD8+ T cells; assay: IFN-γ ELISPOTs, activation of CD8+ T cell immune response; type: cell-based, human; conditions: for Number of spots in the mutated polypeptide group / Number of spots in the wild type polypeptide group: CD8+ T cells primed with DCs loaded with the polypeptide, 20 hours; for Number of spots in the mutated polypeptide group: T2 cells loaded with mutated polypeptide; for Number of spots in the wild type polypeptide group: T2 cells loaded with wild type polypeptide KLMGIVNKV; for Conclusion (immunogenicity): IFN-γ ELISPOTs; for Folds (test/wild type): ratio of spot numbers, >2 = immunogenic
From the text: The principle of ELISPOTs detection method is that CD8+ T cells can specifically recognize the complex of HLA-A0201 and a polypeptide, and with different polypeptide sequence, the T cell population recognizing the complex of HLA-A0201 and the polypeptide is also different. As T2 cells express HLA-A0201, CD8+ T cells can specifically recognize T2 cells loaded with mutated polypeptides, but cannot recognize T2 cells loaded with wild-type polypeptide. After specifically recognizing the complex of HLA-A0201 and the polypeptide, the polypeptide-specific CD8+ T cells are able to reactivate and secrete IFN-γ. The IFN-γ secreted by activation of CD8+ T cells is captured by a biotin-labeled secondary antibody. It is then bound to alkaline phosphatase or peroxide horseradish oxidase-labeled streptavidin. Spots are formed by the color development of the substrate. The number of spots represents the number of cells that are activated to secrete IFN-γ.
The cells co-cultured in Example 4 and T2 cells loaded with the mutated polypeptides or the wild-type polypeptide were added into human IFN-γ ELISPOTs plates for culture and detection. The spots formed by the ELISPOT test were finally counted. The requirement for the test polypeptide to be immunogenic is as follows: the number of spots (test polypeptide)/the number of spots (wild type polypeptide)>2, that is, the number of spots formed by the test polypeptide is more than twice the number of spots formed by the wild type polypeptide.
The cells co-cultured in Example 4 and T2 cells loaded with the mutated polypeptide […] (SEQ ID NO: 2) and its variable formats (SEQ ID NOs: 2-5) and the wild type polypeptide […] (SEQ ID NO: 6) were added into human IFN-γ ELISPOTs plates for culture, and subjected to ELISPOTs test (Mabtech, Cat. No. 3420-4APW-2) 20 hours later.

[4] = tested on: T2 cells; assay: LDH release assay, specific killing activity of CD8+ T cells; type: cell-based, human; parameters: concentration or dose not given beside the values; conditions: T cells activated by the labelled polypeptide, 4 hours
Description: The following experiment was carried out according to the instructions of Pierce™ LDH Cytotoxicity Assay Kit (Thermo, Cat. No. 88953). The co-cultured cells in Example 4 were co-cultured with T2 cells loaded with mutated polypeptides or wild-type polypeptide or T2 cells without any loaded polypeptides. In the experiment, the maximum release well, the volume correction well, the medium control well, the spontaneous release well, the control of different ratios of effective cells to target cells (the ratio of the number of T cells to the T2 cell) and the like were set, and three duplicate wells were set in each group, and after 4 hours, 50 ul of the supernatant of the co-cultured cells was collected and added to 50 ul of LDH substrate mixture to catalyze the reaction of LDH substrate. After 30 minutes, 50 ul of reaction stop solution was added and read the 490 nm wavelength and the reference wavelength of 680 nm, and the killing activity of target cells against T2 cells were calculated based on the control wells.
The formula for calculating the killing activity is: Killing efficiency (%)=(test well−spontaneous release of effector cell−spontaneous release of target cell+medium well)/(maximum release of target cell−volume correction well−spontaneous release of target cell+medium well)×100%

[5] = tested on: H2087-KLMGIVYKV subcutaneous tumor; assay: Lentivirus (nucleic acid) transfected DC vaccine in H2087-[…] subcutaneous tumor model; type: in vivo, NOD/SCID mice; conditions: lentivirus-infected DC, intradermal, 2 weekly injections
From the text: Using automated DNA synthesizer, nucleotide sequences were synthesized by ligating nucleotides one by one based on a known sequence utilizing solid phase phosphite amide method. […] The lentiviral plasmids pHBLV-Puro containing the wild type polypeptide or the mutated polypeptides were separately constructed and named as pHBLV-Puro-[…], pHBLV-Puro-[…], pHBLV-Puro-[…], pHBLV-Puro-[…], pHBLV-Puro-[…], respectively. Thereafter, the five lentiviral plasmids were co-transfected into T293 cells with the pSPAX2 and pMD2G helper plasmids, respectively, and were packaged into lentiviruses containing the wild type polypeptide or the mutated polypeptides.
The established human lung (non-small cell) adenocarcinoma cell line H2087-[…] cells were cultured in DMEM medium supplemented with 10% fetal calf serum, 100 U/mL penicillin and streptomycin in an incubator at 37° C., 5% CO2. […] After appropriate dilution, 40 μl of the cell suspension was stained with 10 μl of 0.4% Trypan Blue and microscopically counted to prepare a tumor cell suspension at a concentration of 1×10^8 cells/ml. […] Using the vernier caliper, the tumor long diameter a and the short diameter b were measured every 2-3 days, and the tumor size was calculated as follows: tumor size=a*b*b/2. […]

[6] = target T2 loaded with KLMGIVYKV (SEQ ID NO: 2)
[7] = target T2 loaded with wild type KLMGIVNKV (SEQ ID NO: 6)

| affinity for HLA-A0201 [1] | Sequence | Total number of cells in the well after culture [2] | Number of spots in the mutated polypeptide group [3] | Number of spots in the wild type polypeptide group [3] | Conclusion (immunogenicity) [3] | Folds (test/wild type) [3] | Killing efficiency, ratio of effective cells to target cells (1:1) [4, 6] | Killing efficiency, ratio of effective cells to target cells (10:1) [4, 6] | Killing efficiency, ratio of effective cells to target cells (1:1) [4, 7] | Killing efficiency, ratio of effective cells to target cells (10:1) [4, 7] | tumor suppressing effect [5] |
| --- | --- | --- | --- | --- | --- | --- | --- | --- | --- | --- | --- |
| enhanced affinity for HLA-A0201 | KMMGIVYKV | 1.37 × 10^7 | 323 | 37 | immunogenic | 8.73 | – | – | – | – | – |
| enhanced affinity for HLA-A0201 | KMMGIVYKL | 1.46 × 10^7 | 328 | 29 | immunogenic | 11.31 | 8.29% | 42.26% | 3.25% | 6.23% | – |
| does have a high affinity for HLA-A0201 | KLMGIVYKV [9-amino-acid mutated TWIST Neighbor protein peptide (N136Y)] | 1.32 × 10^7 | 316 | 31 | immunogenic | 10.01 | 7.69% | 38.29% | 2.33% | 5.03% | – |
| – | KLMGIVNKV [wild-type peptide fragment, amino acids 130-138 of the unmutated Twist neighbor protein] | – | – | – | – | – | – | – | – | – | no effect on the tumor |
| enhanced affinity for HLA-A0201 | KLMGIVYKL | 1.63 × 10^7 | 335 | 40 | immunogenic | 8.34 | 8.76% | 44.52% | 2.17% | 4.63% | – |
